Measured values: patent publication US12522590B2, “Brefeldin a derivatives, preparation method and use thereof” (OCEAN UNIVERSITY OF CHINA, priority 2019, dated 2026)
≈ marks a conversion by molar mass, not a printed value. Like-named read-outs stand apart in the source and are kept apart here.

What was measured:
[1] = system: pancreatic cancer cells PANC-1; assay: Cell proliferation assay (CCK-8); assay type: cell-based, human; conditions: Homo sapiens, PANC-1, 72 h
Excerpt: (§1) CCK-8 method: The CCK-8 method is a highly sensitive, non-radioactive colorimetric assay for the determination of the number of viable cells in cell proliferation or cytotoxicity assays. The orange formazan dye produced by the bioreduction of CCK-8 by intracellular dehydrogenase is soluble in the cell culture medium, and the amount of formazan dye produced is proportional to the number of living cells. The kit used in this method is the tetrazolium salt-WST-8 (2-(2-methoxy-4-nitrophenyl)-3-(4-nitrophenyl)-5-(2,4-disulfophenyl)-2H-tetrazolium monosodium salt) developed by Dojindo Chemical Research Institute (Dojindo), which is capable of being reduced to a water-soluble formazan dye in the presence of the electronic carrier 1-Methoxy PMS.
(§2) Human cervical cancer cells Hela, pancreatic cancer cells PANC-1, esophageal cancer cells Eca-109, human leukemia cells K562, human lung cancer cells A549, human liver cancer cells HepG2, human gastric cancer cells MKN-45, human breast cancer cells MCF7 were cultured in DMEM medium containing 10% FBS (fetal bovine serum), 100 U/mL penicillin and 100 μg/ml streptomycin. Hepatocellular carcinoma cells Bel-7402 were cultured in RPMI-1640 medium containing 10% FBS (fetal bovine serum), 100 U/ml penicillin and 100 μg/ml streptomycin. All cells were placed in a cell culture incubator at 37° C. with 5% CO2. Cells fluid was changed every 3-5 days, and after 80% cell fusion, trypsin digestion and passaging were performed to keep the cells in good logarithmic growth phase.
(§3) All the samples to be tested were dissolved in DMSO.
(§4) Cells in logarithmic growth phase were inoculated in 96-well plates with 5000 cells/well respectively, and after 24 h of incubation, samples were added (final concentrations as shown in the table), and biplicate wells were set up for each sample. The amount of solvent of DMSO was not higher than 2‰. After 72 h, 10 μL of CCK-8 solution was added to each well and incubated for 1.5˜3 h at 37° C. The OD value at 450 nm was measured on an plate reader. Inhibition rate (%)=(1−[(OD450 dosed well−OD450 blank well)/(OD450 control well−OD450 blank well)])×100%
(§5) The fitted IC50 values were calculated using the log (inhibitor) vs. response—Variable slop analysis method in GraphPad Prism software.

[2] = system: esophageal cancer cells Eca-109; assay: Cell proliferation assay (CCK-8); assay type: cell-based, human; conditions: Homo sapiens, Eca-109, 72 h
Excerpt: as §1, §2, §3, §4, §5

[3] = system: human leukemia cells K562; assay: Cell proliferation assay (CCK-8); assay type: cell-based; conditions: Homo sapiens, K562, 72 h
Excerpt: as §1, §2, §3, §4, §5

[4] = system: human lung cancer cells A549; assay: Cell proliferation assay (CCK-8); assay type: cell-based; conditions: Homo sapiens, A549, 72 h
Excerpt: as §1, §2, §3, §4, §5

[5] = system: human breast cancer cells MCF7; assay: Cell proliferation assay (CCK-8); assay type: cell-based; conditions: Homo sapiens, MCF7, 72 h
Excerpt: as §1, §2, §3, §4, §5

[6] = system: human gastric cancer cells MKN-45; assay: Cell proliferation assay (CCK-8); assay type: cell-based; conditions: Homo sapiens, MKN-45, 72 h
Excerpt: as §1, §2, §3, §4, §5

[7] = system: Human cervical cancer cells Hela; assay: Cell proliferation assay (CCK-8); assay type: cell-based; conditions: Homo sapiens, 72 h
Excerpt: as §1, §2, §3, §4, §5

[8] = system: human liver cancer cells HepG2; assay: Cell proliferation assay (CCK-8); assay type: cell-based; conditions: Homo sapiens, HepG2, 72 h
Excerpt: as §1, §2, §3, §4, §5

[9] = Solubility test (shake 37° C., 24 h, HPLC); assay type: physicochemical; conditions: thermodynamic from solid, x ± s
Procedure: The term “solubility” refers to the mass of solute dissolved when a solid substance reaches saturation state in 100 g solvent at a certain temperature. Solubility test refer to the following references: ZHU Shang-bin, et al. Preparation, characterization, and physicochemical properties of arbutin phospholipid complex[J]. Chinese Traditional and Herbal Drugs. 2020, 1-10.
Methods: Excess BFA and the compounds disclosed herein were added to 10 mL of three solvents, methanol, acetone and 5% DMSO+95% H2O, respectively, and shaken on a shaker at 37° C. at 100 r/min for 24 h. After 24 h, the samples were centrifuged at 15 000 r/min for 15 min to remove the undissolved compounds. The supernatant was filtered using a 0.45 μm membrane filter. The supernatant was appropriately diluted with methanol and contents of the compounds were determined by HPLC method to calculate the solubility.

[10] = aqueous with cosolvent or surfactant or cyclodextrin, 5% DMSO + 95% H2O, n = 3, read-out: Solubility, 5% DMSO + 95% H2O
[11] = organic solvent or mixture, acetone, n = 3, read-out: Solubility, Acetone
[12] = organic solvent or mixture, methanol, n = 3, read-out: Solubility, Methanol

SMILES	IC50 [1]	IC50 [2]	IC50 [3]	IC50 [4]	IC50 [5]	IC50 [6]	IC50 [7]	IC50 [8]	solubility at 24 h [9, 10]	solubility at 24 h [9, 11]	solubility at 24 h [9, 12]
COc1cccc2c1C(=O)c1c(O)c3c(c(O)c1C2=O)C[C@@](O)(C(=O)CO)C[C@@H]3O[C@H]1C[C@H](N)[C@H](O)[C@H](C)O1 [Adriamycin, reference compound]	< 100 nM	100 to 1000 nM	1000 to 10000 nM	100 to 1000 nM	1000 to 10000 nM	100 to 1000 nM	100 to 1000 nM	> 10000 nM			
C[C@H]1CCC/C=C/[C@@H]2C[C@H](OC(=O)OCc3ccccn3)C[C@H]2[C@H](O)/C=C/C(=O)O1 [Compound 2, BFA-7-(pyridine-2-ylmethyl)carbonate]	100 to 1000 nM	100 to 1000 nM	100 to 1000 nM	100 to 1000 nM	100 to 1000 nM	100 to 1000 nM	< 100 nM	100 to 1000 nM	2.48 ± 1.55 mg/mL	69.4 ± 2.23 mg/mL (≈ 167 mM)	73.3 ± 3.52 mg/mL (≈ 176 mM)
C[C@H]1CCC/C=C/[C@@H]2C[C@H](OC(=O)OCc3ccncc3)C[C@H]2[C@H](O)/C=C/C(=O)O1 [Compound 3, BFA-7-(pyridine-4-ylmethyl)carbonate]	100 to 1000 nM	100 to 1000 nM	100 to 1000 nM	100 to 1000 nM	< 100 nM	< 100 nM	100 to 1000 nM	100 to 1000 nM	2.65 ± 1.6 mg/mL	69.6 ± 1.74 mg/mL (≈ 168 mM)	70.3 ± 4.35 mg/mL (≈ 169 mM)
C[C@H]1CCC/C=C/[C@@H]2C[C@H](OC(=O)OCc3cncc(F)c3)C[C@H]2[C@H](O)/C=C/C(=O)O1 [Compound 4, BFA-7-(5-fluoro-pyridine-3-ylmethyl)carbonate]	< 100 nM	100 to 1000 nM	100 to 1000 nM	100 to 1000 nM	100 to 1000 nM	100 to 1000 nM	< 100 nM	100 to 1000 nM	2.72 ± 0.33 mg/mL	63.8 ± 3.53 mg/mL (≈ 147 mM)	69.4 ± 3.51 mg/mL (≈ 160 mM)
C[C@H]1CCC/C=C/[C@@H]2C[C@H](OC(=O)OCc3ccc(N)nc3)C[C@H]2[C@H](O)/C=C/C(=O)O1 [Compound 5]	100 to 1000 nM	< 100 nM	100 to 1000 nM	100 to 1000 nM	100 to 1000 nM	< 100 nM	100 to 1000 nM	100 to 1000 nM			
Cc1ccc(COC(=O)O[C@@H]2C[C@H]3[C@H](O)/C=C/C(=O)O[C@@H](C)CCC/C=C/[C@@H]3C2)cn1 [Compound 7]	100 to 1000 nM	100 to 1000 nM	100 to 1000 nM	100 to 1000 nM	100 to 1000 nM	100 to 1000 nM	100 to 1000 nM	100 to 1000 nM			
C[C@H]1CCC/C=C/[C@@H]2C[C@H](OC(=O)OCc3ccc(N4CCCCC4)nc3)C[C@H]2[C@H](O)/C=C/C(=O)O1 [Compound 8]	100 to 1000 nM	100 to 1000 nM	100 to 1000 nM	100 to 1000 nM	100 to 1000 nM	1000 to 10000 nM	1000 to 10000 nM	100 to 1000 nM			
